These results are taken from paper doi:10.1101/2023.10.14.562361v1 (biorxiv, 2023).

For test [1], the target named is T1, Smurf1 HECT (Homo sapiens, UniProt Q9HCE7). The test can be described thus: biolayer interferometry. It counts as binding.
For another test, the system named is Smurf1C2. Nature of the test: UbFluor fluorescence polarization assay. It counts as biochemical, Homo sapiens. Particulars: 0.5 µM enzyme, 2 µM UbFluor, pH 7.4, 0.01% Tween20. (In general: Fluorescence polarisation rises when a labelled molecule tumbles more slowly, as on binding a larger partner.)
Test [2] concerns the target T1, Smurf1 HECT. The test can be described thus: UbFluor fluorescence polarization assay. The format is biochemical.
In another test the target is Smurf1 FL (Homo sapiens, UniProt Q9HCE7). The test can be described thus: UbFluor fluorescence polarization assay. The format is biochemical.
Smurf1 FL, sequence (Q9HCE7 whole entry): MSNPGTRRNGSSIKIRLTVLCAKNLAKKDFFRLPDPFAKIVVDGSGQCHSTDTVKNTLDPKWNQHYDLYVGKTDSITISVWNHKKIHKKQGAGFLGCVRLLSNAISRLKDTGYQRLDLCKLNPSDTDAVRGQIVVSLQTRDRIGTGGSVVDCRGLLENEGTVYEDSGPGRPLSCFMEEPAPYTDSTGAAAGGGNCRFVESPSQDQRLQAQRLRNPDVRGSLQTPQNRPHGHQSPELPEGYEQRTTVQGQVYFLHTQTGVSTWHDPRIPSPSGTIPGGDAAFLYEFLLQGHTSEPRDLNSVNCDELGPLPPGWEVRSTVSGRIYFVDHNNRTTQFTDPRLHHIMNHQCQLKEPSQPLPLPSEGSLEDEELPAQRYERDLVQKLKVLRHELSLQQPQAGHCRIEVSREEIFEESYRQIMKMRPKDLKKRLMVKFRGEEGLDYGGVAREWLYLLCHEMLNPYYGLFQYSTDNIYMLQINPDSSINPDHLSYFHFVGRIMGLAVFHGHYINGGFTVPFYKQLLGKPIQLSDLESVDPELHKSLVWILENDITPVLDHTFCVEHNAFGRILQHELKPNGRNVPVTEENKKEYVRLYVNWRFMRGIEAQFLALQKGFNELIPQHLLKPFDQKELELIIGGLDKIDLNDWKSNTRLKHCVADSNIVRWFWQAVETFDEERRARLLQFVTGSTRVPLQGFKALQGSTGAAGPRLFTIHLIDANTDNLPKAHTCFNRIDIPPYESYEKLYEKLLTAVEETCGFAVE

T1 sequence (Q9HCE7 341-757): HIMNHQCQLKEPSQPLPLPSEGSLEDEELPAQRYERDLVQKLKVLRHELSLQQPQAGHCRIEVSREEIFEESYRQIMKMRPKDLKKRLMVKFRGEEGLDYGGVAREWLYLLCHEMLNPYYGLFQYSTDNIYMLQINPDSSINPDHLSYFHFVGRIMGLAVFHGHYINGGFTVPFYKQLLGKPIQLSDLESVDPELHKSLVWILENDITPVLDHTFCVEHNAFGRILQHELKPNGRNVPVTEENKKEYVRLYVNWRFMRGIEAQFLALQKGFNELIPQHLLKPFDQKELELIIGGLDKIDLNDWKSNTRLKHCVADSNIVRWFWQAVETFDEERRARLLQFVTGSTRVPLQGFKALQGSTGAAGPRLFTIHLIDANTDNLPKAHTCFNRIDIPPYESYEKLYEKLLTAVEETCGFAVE

In turn, `Cc1c(C(=O)Nc2c(C)n(C)n(C3CCCCC3)c2=O)nnn1-c1ccc(OC(F)(F)F)cc1Cl` [compound 2] showed a Kd at Smurf1 HECT [1] of 54500 ± 2000 nM. The midpoint of inhibition in the test with Smurf1C2, the IC50, lay at 3100 nM.

Take `Cc1c(NC(=O)c2noc3c2CCSc2cc(OC(F)(F)F)ccc2-3)c(=O)n(C2CCCCC2)n1C` [compound 1]: the affinity at Smurf1 HECT [1], expressed as Kd, was 25800 ± 2200 nM. Moreover, the half-inhibitory concentration (IC50) in the test on Smurf1C2 is 140 nM; at Smurf1 HECT [2] it was 450 nM; at Smurf1 FL, 230 nM.

Broadly, the Kd is the free concentration of one partner at which half of the binding sites on the other are occupied at equilibrium, for simple one-to-one binding. A lower Kd goes with a tighter complex. Broadly, the IC50 is the concentration at which inhibition is half-maximal. Lower therefore signals inhibition by little substance.
